US20190047966A1, “NOVEL COMPOUND AND PHARMACOLOGICALLY ACCEPTABLE SALT THEREOF” (MEIJI SEIKA PHARMA CO., LTD., priority 2016, published 2019)
Counter-ions that a name gives are not always drawn.

Key:
[1] = molecular target: T1, human histamine H4 receptor (Homo sapiens, UniProt Q9H3N8); test: Evaluation of Human H4 Receptor Affinity ([3H]histamine binding); conditions: inhibition constant Ki, CHO-K1 membrane preparation, read-out: Evaluation of H4 Receptor Affinity
T1 construct: purchased PerkinElmer Inc; host or cells: CHO-K1
Protocol: Test Example 2: Evaluation of Human H4 Receptor Affinity
Membrane preparation from recombinant CHO-K1 cell expressing the human histamine H4 receptor (PerkinElmer Inc.), radiolabeled ligand 8.2 nM [^3H]histamine (PerkinElmer Inc.), and compounds dissolved in DMSO were reacted at 25° C. for 90 minutes in a buffering solution containing 50 mM tris-hydrochloric acid, pH 7.4, and 1.25 mM EDTA on a 96 well plate, followed by filtration using a GF/B filter (PerkinElmer Inc.) pretreated with 0.3% polyethylenimine. The residue was washed four times with a buffering solution of 50 mM tris-hydrochloric acid, pH 7.4. Thereafter, a scintillation cocktail (MicroScint 20: PerkinElmer Inc.) was added to the GF/B filter, and the radioactivity of each well was measured using a liquid scintillation counter for 96-well (TopCount: PerkinElmer Inc.). The non-specific binding was evaluated in the presence of 1.0 μM histamine. The inhibition constant Ki was calculated from the 50% inhibitory concentration (IC50 value) obtained in each test and the Kd value (5.7 nM) unique to this assay system, according to the Cheng-Prusoff equation.

[2] = molecular target: human histamine H1 receptor (Homo sapiens, UniProt P35367); test: Evaluation of Human H1 Receptor Affinity ([3H]pyrilamine binding); set-up: purchased PerkinElmer Inc; host or cells: CHO-K1; conditions: inhibition constant Ki, CHO-K1 membrane preparation
Protocol: Test Example 1: Evaluation of Human H1 Receptor Affinity
Membrane preparation from recombinant CHO-K1 cell expressing the human histamine H1 receptor (PerkinElmer Inc.), radiolabeled ligand 1.2 nM [^3H]pyrilamine (PerkinElmer Inc.), and test compounds dissolved in DMSO were reacted at 25° C. for 3 hours in a buffering solution containing 50 mM tris-hydrochloric acid, pH 7.4, and 5 mM magnesium chloride on a 96 well plate, followed by filtration using a GF/B filter (PerkinElmer Inc.) pretreated with 0.3% polyethylenimine. The residue was washed four times with a buffering solution of 50 mM tris-hydrochloric acid, pH 7.4. Thereafter, a scintillation cocktail (MicroScint 20: PerkinElmer Inc.) was added to the GF/B filter, and the radioactivity of each well was measured using a liquid scintillation counter for 96-well (TopCount: PerkinElmer Inc.). The non-specific binding was evaluated in the presence of 1.0 μM pyrilamine. The inhibition constant Ki was calculated from the 50% inhibitory concentration (IC50 value) obtained in each test and the Kd value (1.1 nM) unique to this assay system, according to the Cheng-Prusoff equation.

human histamine H1 receptor, sequence (P35367 whole entry): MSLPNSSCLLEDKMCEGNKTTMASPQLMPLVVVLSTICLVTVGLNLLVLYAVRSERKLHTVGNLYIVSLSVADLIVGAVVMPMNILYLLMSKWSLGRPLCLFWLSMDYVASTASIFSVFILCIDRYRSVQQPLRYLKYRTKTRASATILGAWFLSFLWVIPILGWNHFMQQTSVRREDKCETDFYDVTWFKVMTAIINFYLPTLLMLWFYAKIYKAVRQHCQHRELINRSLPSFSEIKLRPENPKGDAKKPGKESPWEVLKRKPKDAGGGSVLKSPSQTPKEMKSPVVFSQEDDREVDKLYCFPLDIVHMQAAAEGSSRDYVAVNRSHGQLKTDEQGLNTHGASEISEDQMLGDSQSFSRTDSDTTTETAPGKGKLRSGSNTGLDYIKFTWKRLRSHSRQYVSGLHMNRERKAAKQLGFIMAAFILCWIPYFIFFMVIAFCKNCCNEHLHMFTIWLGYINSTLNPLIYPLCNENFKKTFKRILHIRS

Compound	Ki [1]	Ki [2]
Nc1nc2c(c(N3CCN(CCOC4CCC(C(=O)O)OC4)CC3)n1)CCc1cc(OCc3ccc(OC(F)(F)F)cc3)ccc1-2 (stereo not shown) [Example 179, 5-(2-(4-(2-amino-8-((4-(trifluoromethoxy)benzyl)oxy)-5,6-dihydrobenzo[h]quinazolin-4-yl)piperazin-1-yl)ethoxy)tetrahydro-2H-pyran-2-carboxylic acid]	< 100 nM	< 100 nM
Nc1nc2c(c(N3CCN(CCO)CC3)n1)CCc1cc(OCc3ccccc3)ccc1-2 [Example 7, 2-(4-(2-amino-8-(benzyloxy)-5,6-dihydrobenzo[h]quinazolin-4-yl)piperazin-1-yl)ethan-1-ol]	100 to 500 nM	< 100 nM
Nc1nc2c(c(N3CCN(CCOC[C@H]4CC[C@@H](C(=O)O)CC4)CC3)n1)CCc1cc(OCc3ccc(OC(F)(F)F)cc3)ccc1-2 [Example 27, cis-4-((2-(4-(2-amino-8-((4-(trifluoromethoxy)benzyl)oxy)-5,6-dihydrobenzo[h]quinazolin-4-yl)piperazin-1-yl)ethoxy)methyl)cyclohexane-1-carboxylic acid dihydrochloride]	< 100 nM	< 100 nM
Nc1nc2c(c(N3CCN(CCO[C@H]4C[C@@H](C(=O)NO)C4)CC3)n1)CCc1cc(OCc3ccc(OC(F)(F)F)cc3)ccc1-2 [Example 189, cis 3-(2-(4-(2-amino-8-((4-(trifluoromethoxy)benzyl)oxy)-5,6-dihydrobenzo[h]quinazolin-4-yl)piperazin-1-yl)ethoxy)-N-hydroxycyclobutane-l-carboxamide]	< 100 nM	< 100 nM
Nc1nc2c(c(N3CCNCC3)n1)CCc1cc(OCc3ccccc3)ccc1-2 [Example 5, 8-(benzyloxy)-4-(piperazin-1-yl)-5,6-dihydrobenzo[h]quinazolin-2-amine]	< 100 nM	< 100 nM
CN1CCN(c2nc(N)nc3c2CCc2cc(NS(=O)(=O)CCc4ccccc4)ccc2-3)CC1 [Example 51, N-(2-amino-4-(4-methylpiperazin-1-yl)-5,6-dihydrobenzo[h]quinazolin-8-yl)-6-phenylethane-1-sulfonamide]	< 100 nM	< 100 nM
cis-3-(2-(4-(2-amino-8-((4-cyclopropylbenzyl)oxy)-5,6-dihydrobenzo[h]quinazolin-4-yl)piperazin-1-yl)ethoxy)cyclobutane-l-carboxylic acid [Example 214]	< 100 nM	< 100 nM
Nc1nc2c(c(N3CCN(CCOCc4cc(OCc5ccccc5)no4)CC3)n1)CCc1cc(OCc3ccc(Cl)cc3)ccc1-2 [Example 116, 4-(4-(2-((3-(benzyloxy)isoxazol-5-yl)methoxy)ethyl)piperazin-1-yl)-8-((4-chlorobenzyl)oxy)-5,6-dihydrobenzo[h]quinazolin-2-amine]	100 to 500 nM	< 100 nM
NC(=O)COCCOCCN1CCN(c2nc(N)nc3c2CCc2cc(OCc4ccccc4)ccc2-3)CC1 [Example 109, 2-(2-(2-(4-(2-amino-8-(benzyloxy)-5,6-dihydrobenzo[h]quinazolin-4-yl)piperazin-1-yl)ethoxy)ethoxy)acetamide]	100 to 500 nM	< 100 nM
CS(=O)(=O)NCCOCCOCCN1CCN(c2nc(N)nc3c2CCc2cc(OCc4ccccc4)ccc2-3)CC1 [Example 110, N-(2-(2-(2-(4-(2-amino-8-(benzyloxy)-5,6-dihydrobenzo[h]quinazolin-4-yl)piperazin-1-yl)ethoxy)ethoxy)ethyl)methanesulfonamide dihydrochloride]	< 100 nM	< 100 nM
CC12CCC(C(=O)O)(CC1OCCN1CCN(c3nc(N)nc4c3CCc3cc(OCc5ccc(Cl)cc5)ccc3-4)CC1)C2(C)C (stereo not shown) [Example 158, 3-(2-(4-(2-amino-8-((4-chlorobenzyl)oxy)-5,6-dihydrobenzo[h]quinazolin-4-yl)piperazin-1-yl)ethoxy)-4,7,7-trimethylbicyclo[2.2.1]heptane-1-carboxylic acid hydrochloride]	100 to 500 nM	< 100 nM
Nc1nc2c(c(N3CCN(CCCOc4cccc(C(=O)O)c4)CC3)n1)CCc1cc(OCc3ccc(Cl)cc3)ccc1-2 [131(b), 3-(3-(4-(2-amino-8-((4-chlorobenzyl)oxy)-5,6-dihydrobenzo[h]quinazolin-4-yl)piperazin-1-yl)propoxy)benzoic acid]	100 to 500 nM	< 100 nM
Nc1nc2c(c(N3CCN(CCOCCOc4nnn[nH]4)CC3)n1)CCc1cc(OCc3ccc(Cl)cc3)ccc1-2 [Example 115, 4-(4-(2-(2-((tetrazol-5-yl)oxy)ethoxy)ethyl)piperazin-1-yl)-8-((4-chlorobenzyl)oxy)-5,6-dihydrobenzo[h]quinazolin-2-amine dihydrochloride]	100 to 500 nM	< 100 nM
Nc1nc2c(c(N3CCNCC3)n1)CCc1cc(OCc3ccc(Cl)cc3)ccc1-2 [Example 4, 8-((4-chlorobenzyl)oxy)-4-(piperazin-1-yl)-5,6-dihydrobenzo[h]quinazolin-2-amine]	< 100 nM	< 100 nM
CN1CCN(c2nc(N)nc3c2CCc2cc(OCc4ccccc4)ccc2-3)CC1CO (stereo not shown) [Example 106, (4-(2-amino-8-(benzyloxy)-5,6-dihydrobenzo[h]quinazolin-4-yl)-1-methylpiperazin-2-yl)methanol]	100 to 500 nM	100 to 500 nM
Nc1nc2c(c(N3CCN(CCO[C@H]4C[C@@H](C(=O)O)C4)CC3)n1)CCc1cc(OCc3ccc(S(=O)(=O)C(F)(F)F)cc3)ccc1-2 [Example 212, cis-3-(2-(4-(2-amino-8-((4-((trifluoromethyl)sulfonyl)benzyl)oxy)-5,6-dihydrobenzo[h]quinazolin-4-yl)piperazin-1-yl)ethoxy)cyclobutane-l-carboxylic acid]	< 100 nM	< 100 nM

Continued, values first:

Ki [1]	Ki [2]	Compound
< 100 nM	< 100 nM	COC(=O)COCCN1CCN(c2nc(N)nc3c2CCc2cc(OCc4ccc(Cl)cc4)ccc2-3)CC1 [Example 113, methyl 2-(2-(4-(2-amino-8-((4-chlorobenzyl)oxy)-5,6-dihydrobenzo[h]quinazolin-4-yl)piperazin-1-yl)ethoxy)acetate]
< 100 nM	< 100 nM	NCCOCCOCCN1CCN(c2nc(N)nc3c2CCc2cc(OCc4ccc(Cl)cc4)ccc2-3)CC1 [Example 118, 4-(4-(2-(2-(2-aminoethoxy)ethoxy)ethyl)piperazin-1-yl)-8-((4-chlorobenzyl)oxy)-5,6-dihydrobenzo[h]quinazolin-2-amine]
< 100 nM	< 100 nM	Nc1nc2c(c(N3CCN(CCOCC4(CCC(=O)O)COC4)CC3)n1)CCc1cc(OCc3ccc(Cl)cc3)ccc1-2 [Example 163, 3-(3-((2-(4-(2-amino-8-((4-chlorobenzyl)oxy)-5,6-dihydrobenzo[h]quinazolin-4-yl)piperazin-1-yl)ethoxy)methyl)oxetan-3-yl)propanoic acid]
< 100 nM	< 100 nM	CC(C)(C(=O)O)[C@H]1C[C@@H](OCCN2CCN(c3nc(N)nc4c3CCc3cc(OCc5ccc(Cl)cc5)ccc3-4)CC2)C1 [Example 172, cis-2-(3-(2-(4-(2-amino-8-((4-chlorobenzyl)oxy)-5,6-dihydrobenzo[h]quinazolin-4-yl)piperazin-1-yl)ethoxy)cyclobutyl)-2-methylpropanoic acid]
< 100 nM	< 100 nM	Nc1nc2c(c(N3CCN(CCOC45CCC(C(=O)O)(CC4)CC5)CC3)n1)CCc1cc(OCc3ccc(Cl)cc3)ccc1-2 [Example 157, 4-(2-(4-(2-amino-8-((4-chlorobenzyl)oxy)-5,6-dihydrobenzo[h]quinazolin-4-yl)piperazin-1-yl)ethoxy)bicyclo[2.2.2]octane-1-carboxylic acid hydrochloride]
< 100 nM	< 100 nM	CC1(C(=O)O)CCC(COCCN2CCN(c3nc(N)nc4c3CCc3cc(OCc5ccc(Cl)cc5)ccc3-4)CC2)CC1 (stereo not drawn) [Example 165, trans- or cis-4-((2-(4-(2-amino-8-((4-chlorobenzyl)oxy)-5,6-dihydrobenzo[h]quinazolin-4-yl)piperazin-1-yl)ethoxy)methyl)-1-methylcyclohexane-1-carboxylic acid]
< 100 nM	< 100 nM	CC1(COCCN2CCN(c3nc(N)nc4c3CCc3cc(OCc5ccc(Cl)cc5)ccc3-4)CC2)CCC(C(=O)O)CC1 (stereo not drawn) [Example 164, cis- or trans-4-((2-(4-(2-amino-8-((4-chlorobenzyl)oxy)-5,6-dihydrobenzo[h]quinazolin-4-yl)piperazin-1-yl)ethoxy)methyl)-4-methylcyclohexane-1-carboxylic acid]
